≈ marks a conversion by molar mass, not a printed value.
Columns and labels:
Assay type in all cases: functional
[1] = tested on: Staphylococcus epidermidis; test: Antibacterial activity against Staphylococcus epidermidis ATCC 12228 assessed as bacterial growth inhibition incubated for 24 hrs by CLSI based broth microdilution method
Staphylococcus aureus [2] = test: Antibacterial activity against Staphylococcus aureus ATCC 25923 assessed as bacterial growth inhibition incubated for 24 hrs by CLSI based broth microdilution method
Staphylococcus aureus [3] = test: Antibacterial activity against Staphylococcus aureus ATCC 29213 assessed as bacterial growth inhibition incubated for 24 hrs by CLSI based broth microdilution method
Staphylococcus aureus [4] = test: Antibacterial activity against methicillin-resistant Staphylococcus aureus ATCC 33591 assessed as bacterial growth inhibition incubated for 24 hrs by CLSI based broth microdilution method
Escherichia coli = test: Antibacterial activity against Escherichia coli ATCC 25922 assessed as bacterial growth inhibition incubated for 24 hrs by CLSI based broth microdilution method
Acinetobacter baumannii = test: Antibacterial activity against Acinetobacter baumannii ATCC 19606 assessed as bacterial growth inhibition incubated for 24 hrs by CLSI based broth microdilution method

Structure (SMILES) | MIC [1] [mg/L] | MIC (Staphylococcus aureus [2]) [mg/L] | MIC (Staphylococcus aureus [3]) [mg/L] | MIC (Staphylococcus aureus [4]) [mg/L] | MIC (Escherichia coli) [mg/L] | MIC (Acinetobacter baumannii) [mg/L]
C=C[C@]1(C)C[C@@H](OC(=O)COC(=O)/C=C/c2cccc(C(F)(F)F)c2)[C@]2(C)[C@H](C)CC[C@]3(CCC(=O)[C@H]32)[C@@H](C)[C@@H]1O | 64 (≈ 111 µM) | 32 (≈ 55.5 µM) | 64 (≈ 111 µM) | 256 (≈ 444 µM) | 64 (≈ 111 µM) | 128 (≈ 222 µM)
C=C[C@]1(C)C[C@@H](OC(=O)COC(=O)/C=C/c2cccc(F)c2)[C@]2(C)[C@H](C)CC[C@]3(CCC(=O)[C@H]32)[C@@H](C)[C@@H]1O | 32 (≈ 60.8 µM) | 16 (≈ 30.4 µM) | 32 (≈ 60.8 µM) | 64 (≈ 122 µM) | > 128 | > 128
C=C[C@]1(C)C[C@@H](OC(=O)COC(=O)/C=C/c2ccc(Cn3ccnc3)cc2)[C@]2(C)[C@H](C)CC[C@]3(CCC(=O)[C@H]32)[C@@H](C)[C@@H]1O | 16 (≈ 27.2 µM) | 8 (≈ 13.6 µM) | 16 (≈ 27.2 µM) | 32 (≈ 54.4 µM) | 64 (≈ 109 µM) | 128 (≈ 217 µM)
C=C[C@]1(C)C[C@@H](OC(=O)COC(=O)/C=C/c2ccc(C(F)(F)F)cc2)[C@]2(C)[C@H](C)CC[C@]3(CCC(=O)[C@H]32)[C@@H](C)[C@@H]1O | 8 (≈ 13.9 µM) | 16 (≈ 27.7 µM) | 16 (≈ 27.7 µM) | 128 (≈ 222 µM) | 64 (≈ 111 µM) | > 128
C=C[C@]1(C)C[C@@H](OC(=O)COC(=O)/C=C/c2ccsc2)[C@]2(C)[C@H](C)CC[C@]3(CCC(=O)[C@H]32)[C@@H](C)[C@@H]1O | 16 (≈ 31.1 µM) | 32 (≈ 62.2 µM) | 8 (≈ 15.5 µM) | 64 (≈ 124 µM) | 32 (≈ 62.2 µM) | 32 (≈ 62.2 µM)
C=C[C@]1(C)C[C@@H](OC(=O)COC(=O)/C=C/c2ccc(-c3ccccc3)cc2)[C@]2(C)[C@H](C)CC[C@]3(CCC(=O)[C@H]32)[C@@H](C)[C@@H]1O | 32 (≈ 54.7 µM) | 64 (≈ 109 µM) | 32 (≈ 54.7 µM) | 64 (≈ 109 µM) | > 128 | > 128
C=C[C@]1(C)C[C@@H](OC(=O)COC(=O)/C=C/c2ccc(OC)cc2)[C@]2(C)[C@H](C)CC[C@]3(CCC(=O)[C@H]32)[C@@H](C)[C@@H]1O | 2 (≈ 3.71 µM) | 4 (≈ 7.43 µM) | 8 (≈ 14.9 µM) | 16 (≈ 29.7 µM) | 32 (≈ 59.4 µM) | > 128
C=C[C@]1(C)C[C@@H](OC(=O)COC(=O)/C=C/c2ccc(F)cc2)[C@]2(C)[C@H](C)CC[C@]3(CCC(=O)[C@H]32)[C@@H](C)[C@@H]1O | 32 (≈ 60.8 µM) | 16 (≈ 30.4 µM) | 32 (≈ 60.8 µM) | 32 (≈ 60.8 µM) | 128 (≈ 243 µM) | 128 (≈ 243 µM)
C=C[C@]1(C)C[C@@H](OC(=O)COC(=O)/C=C/c2cc(Br)ccc2F)[C@]2(C)[C@H](C)CC[C@]3(CCC(=O)[C@H]32)[C@@H](C)[C@@H]1O | 64 (≈ 106 µM) | 16 (≈ 26.4 µM) | 32 (≈ 52.8 µM) | 64 (≈ 106 µM) | 64 (≈ 106 µM) | 128 (≈ 211 µM)
C=C[C@]1(C)C[C@@H](OC(=O)COC(=O)/C=C/c2ccncc2)[C@]2(C)[C@H](C)CC[C@]3(CCC(=O)[C@H]32)[C@@H](C)[C@@H]1O | 4 (≈ 7.85 µM) | 8 (≈ 15.7 µM) | 16 (≈ 31.4 µM) | 32 (≈ 62.8 µM) | 64 (≈ 126 µM) | 64 (≈ 126 µM)
C=C[C@]1(C)C[C@@H](OC(=O)COC(=O)/C=C/c2ccc(OCc3ccccc3)cc2)[C@]2(C)[C@H](C)CC[C@]3(CCC(=O)[C@H]32)[C@@H](C)[C@@H]1O | 32 (≈ 52.1 µM) | 16 (≈ 26 µM) | 32 (≈ 52.1 µM) | 128 (≈ 208 µM) | > 128 | 64 (≈ 104 µM)
C=C[C@]1(C)C[C@@H](OC(=O)COC(=O)/C=C/c2ccc(F)c(F)c2F)[C@]2(C)[C@H](C)CC[C@]3(CCC(=O)[C@H]32)[C@@H](C)[C@@H]1O | 16 (≈ 28.4 µM) | 32 (≈ 56.9 µM) | 64 (≈ 114 µM) | 128 (≈ 228 µM) | 64 (≈ 114 µM) | 128 (≈ 228 µM)
C=C[C@]1(C)C[C@@H](OC(=O)COC(=O)/C=C/c2ccc3ccccc3c2)[C@]2(C)[C@H](C)CC[C@]3(CCC(=O)[C@H]32)[C@@H](C)[C@@H]1O | 32 (≈ 57.3 µM) | 16 (≈ 28.6 µM) | 32 (≈ 57.3 µM) | 128 (≈ 229 µM) | > 128 | > 128

— ChEMBL document CHEMBL5625206, “Design, synthesis, and evaluation of novel pleuromutilin aryl acrylate derivatives as promising broad-spectrum antibiotics especially for combatting multi-drug resistant gram-negative bacteria” (Eur J Med Chem, 2023)
